Common to all, as to format: cell-based
In one experiment the target is T1, human TLR7 (Homo sapiens, UniProt Q9NYK1).
T1 construct: host or cells: HEK-Blue cells
T1 sequence (Q9NYK1 27-1049): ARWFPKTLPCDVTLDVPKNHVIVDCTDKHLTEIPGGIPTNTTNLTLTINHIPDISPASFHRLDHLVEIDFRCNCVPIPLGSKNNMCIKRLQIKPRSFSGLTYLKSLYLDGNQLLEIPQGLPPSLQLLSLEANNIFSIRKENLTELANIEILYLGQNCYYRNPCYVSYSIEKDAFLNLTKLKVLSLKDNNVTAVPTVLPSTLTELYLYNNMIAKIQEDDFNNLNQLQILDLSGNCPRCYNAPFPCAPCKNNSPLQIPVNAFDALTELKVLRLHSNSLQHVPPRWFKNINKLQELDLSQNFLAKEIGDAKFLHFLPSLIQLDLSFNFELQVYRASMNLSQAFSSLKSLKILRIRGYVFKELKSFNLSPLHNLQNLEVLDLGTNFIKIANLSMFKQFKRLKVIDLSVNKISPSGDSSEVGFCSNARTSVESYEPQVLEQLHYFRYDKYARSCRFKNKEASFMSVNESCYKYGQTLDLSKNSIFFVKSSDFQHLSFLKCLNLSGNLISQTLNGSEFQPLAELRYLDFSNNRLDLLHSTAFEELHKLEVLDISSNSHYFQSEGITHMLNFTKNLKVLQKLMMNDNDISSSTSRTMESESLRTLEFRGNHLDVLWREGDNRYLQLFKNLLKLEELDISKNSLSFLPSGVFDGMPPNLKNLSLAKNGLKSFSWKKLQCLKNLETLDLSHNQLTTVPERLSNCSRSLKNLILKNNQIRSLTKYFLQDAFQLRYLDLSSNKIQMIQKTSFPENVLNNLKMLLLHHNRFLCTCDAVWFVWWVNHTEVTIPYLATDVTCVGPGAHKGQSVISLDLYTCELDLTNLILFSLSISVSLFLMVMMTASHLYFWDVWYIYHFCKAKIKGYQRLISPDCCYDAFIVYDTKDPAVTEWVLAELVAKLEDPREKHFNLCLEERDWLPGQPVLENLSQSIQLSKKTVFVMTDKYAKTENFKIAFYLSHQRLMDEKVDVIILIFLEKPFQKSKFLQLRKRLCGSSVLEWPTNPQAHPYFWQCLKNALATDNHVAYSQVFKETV
As to the kind of experiment: TLR7 inhibition reporter assay (HEK-Blue cells, SEAP reporter, gardiquimod stimulation). The following applies: HEK-Blue cells overexpressing human TLR7, SEAP reporter, gardiquimod 7.5 μM; read-out: TLR7 IC50. The method in brief: (§1)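 Human TLR7/8/9 HEK-Blue reporter lines; dose range 0.05 nM–50 μM; 30 min RT preincubation; stimulus gardiquimod 7.5 μM / R848 15.9 μM / ODN2006 5 nM respectively; 22 h, 37 °C; SEAP detected colorimetrically.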
Background: In a reporter assay the amount or activity of a reporter protein is the signal.

The next experiment has as its target T2, human TLR8 (Homo sapiens, UniProt Q9NR97).
T2 construct: host or cells: HEK-Blue cells
T2 sequence (Q9NR97 27-1041): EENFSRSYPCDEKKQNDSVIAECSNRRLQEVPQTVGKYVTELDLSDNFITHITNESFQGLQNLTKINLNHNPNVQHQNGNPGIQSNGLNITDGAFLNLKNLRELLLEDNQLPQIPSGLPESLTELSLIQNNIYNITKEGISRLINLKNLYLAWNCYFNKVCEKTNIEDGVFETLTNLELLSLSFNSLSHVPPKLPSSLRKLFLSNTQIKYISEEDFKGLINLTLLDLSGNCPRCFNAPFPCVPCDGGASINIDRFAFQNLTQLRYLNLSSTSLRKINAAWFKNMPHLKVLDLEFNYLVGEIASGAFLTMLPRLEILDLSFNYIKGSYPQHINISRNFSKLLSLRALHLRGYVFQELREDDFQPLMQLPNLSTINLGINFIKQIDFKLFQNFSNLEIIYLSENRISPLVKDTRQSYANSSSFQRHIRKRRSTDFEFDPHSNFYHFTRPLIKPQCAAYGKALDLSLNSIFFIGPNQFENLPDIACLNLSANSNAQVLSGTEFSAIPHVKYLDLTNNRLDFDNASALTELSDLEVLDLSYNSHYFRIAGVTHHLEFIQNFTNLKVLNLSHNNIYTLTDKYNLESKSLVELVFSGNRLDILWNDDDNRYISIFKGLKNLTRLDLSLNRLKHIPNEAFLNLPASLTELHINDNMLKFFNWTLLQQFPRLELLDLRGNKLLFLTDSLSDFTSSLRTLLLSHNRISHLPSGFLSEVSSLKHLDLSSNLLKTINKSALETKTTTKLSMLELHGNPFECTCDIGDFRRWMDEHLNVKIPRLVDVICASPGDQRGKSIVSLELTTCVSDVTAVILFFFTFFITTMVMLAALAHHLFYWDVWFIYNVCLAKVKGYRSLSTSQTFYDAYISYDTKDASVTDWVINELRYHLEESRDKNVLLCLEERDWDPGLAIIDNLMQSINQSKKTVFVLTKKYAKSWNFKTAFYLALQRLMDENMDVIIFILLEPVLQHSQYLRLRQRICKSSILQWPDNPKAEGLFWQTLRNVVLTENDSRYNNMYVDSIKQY
As to the kind of experiment: TLR8 inhibition reporter assay (HEK-Blue cells, SEAP reporter, R848 stimulation). The following applies: HEK-Blue cells overexpressing human TLR8, SEAP reporter, R848 15.9 μM; read-out: TLR8 IC50. The method in brief: as §1

A further experiment deals with T3, human TLR9 (Homo sapiens, UniProt Q9NR96).
T3 construct: host or cells: HEK-Blue cells
T3 sequence (Q9NR96 26-1032): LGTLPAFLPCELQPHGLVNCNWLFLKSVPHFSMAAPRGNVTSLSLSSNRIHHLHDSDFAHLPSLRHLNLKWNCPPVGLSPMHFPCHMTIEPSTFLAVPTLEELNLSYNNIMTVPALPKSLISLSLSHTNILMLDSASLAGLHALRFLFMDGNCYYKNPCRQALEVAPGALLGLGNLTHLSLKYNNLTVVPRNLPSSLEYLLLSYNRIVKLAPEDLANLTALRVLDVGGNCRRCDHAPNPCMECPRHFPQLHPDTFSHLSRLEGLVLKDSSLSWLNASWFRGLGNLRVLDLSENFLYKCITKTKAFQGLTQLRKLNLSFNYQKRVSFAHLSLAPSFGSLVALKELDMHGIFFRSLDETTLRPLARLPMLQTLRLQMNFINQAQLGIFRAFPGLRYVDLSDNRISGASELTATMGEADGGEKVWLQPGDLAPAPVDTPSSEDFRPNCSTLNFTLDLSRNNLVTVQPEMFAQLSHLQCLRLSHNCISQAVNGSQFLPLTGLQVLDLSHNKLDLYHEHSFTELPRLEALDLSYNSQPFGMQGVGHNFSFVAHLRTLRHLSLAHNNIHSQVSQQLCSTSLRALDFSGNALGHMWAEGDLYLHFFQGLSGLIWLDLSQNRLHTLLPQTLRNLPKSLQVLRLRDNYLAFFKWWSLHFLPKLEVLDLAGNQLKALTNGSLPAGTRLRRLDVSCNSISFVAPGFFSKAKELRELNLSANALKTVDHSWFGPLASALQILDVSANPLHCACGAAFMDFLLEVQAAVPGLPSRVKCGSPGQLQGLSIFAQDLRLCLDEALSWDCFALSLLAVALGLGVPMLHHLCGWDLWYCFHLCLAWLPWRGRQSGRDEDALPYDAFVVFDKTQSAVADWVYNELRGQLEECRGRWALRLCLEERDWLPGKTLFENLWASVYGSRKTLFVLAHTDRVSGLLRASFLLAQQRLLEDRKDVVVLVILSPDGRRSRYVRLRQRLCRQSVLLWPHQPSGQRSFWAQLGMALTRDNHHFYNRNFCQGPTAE
As to the kind of experiment: TLR9 inhibition reporter assay (HEK-Blue cells, SEAP reporter, ODN2006 stimulation). The note with it: HEK-Blue cells overexpressing human TLR9, SEAP reporter, ODN2006 5 nM. In outline:
as §1

The structures appear in SMILES notation.

What is called IC50 is the concentration needed to halve the response being measured. With `Cc1c(-c2[nH]c3sc(C(=O)NCCN4CCCC4)nc3c2C(C)C)cn2ncnc2c1C` [Example 370, 5-(7,8-dimethyl-[1,2,4]triazolo[1,5-a]pyridin-6-yl)-6-isopropyl-N-(2-(pyrrolidin-1-yl)ethyl)-4H-pyrrolo[3,2-d]thiazole-2-carboxamide], the concentration for half-maximal inhibition (IC50) on human TLR7 was 0.0124 µM; at human TLR8, 0.00138 µM; at human TLR9, 6.44 µM.

With `COc1cc(-c2[nH]c3sc(C4CCC(N5CCC6(CCNC6)C5)CC4)nc3c2C(C)C)cn2ncnc12` (single isomer, unassigned) [Example 114, 2-(4-(2,7-diazaspiro[4.4]nonan-2-yl)cyclohexyl)-6-isopropyl-5-(8-methoxy-[1,2,4]triazolo[1,5-a]pyridin-6-yl)-4H-pyrrolo[3,2-d]thiazole], the IC50 at human TLR7 was 0.00363 µM; at human TLR8 it was 0.0014 µM; on human TLR9, 1.46 µM.

For `Cc1c(-c2[nH]c3sc(C4CCC(N(C)C(C)C)CC4)nc3c2C(C)C)cn(C)c(=O)c1C` (single isomer, unassigned) [Example 262, 5-(6-isopropyl-2-(4-(isopropyl(methyl)amino)cyclohexyl)-4H-pyrrolo[3,2-d]thiazol-5-yl)-1,3,4-trimethylpyridin-2(1H)-one], the IC50 at human TLR7 is 0.0238 µM; at human TLR8 it was 0.0175 µM; against human TLR9, 18.3 µM.

`Cc1c(-c2[nH]c3sc(C4CCC(N5CC(F)C5)CC4)nc3c2C(C)C)cn2ncnc2c1C` (single isomer, unassigned) [Example 227, 5-(7,8-dimethyl-[1,2,4]triazolo[1,5-a]pyridin-6-yl)-2-(4-(3-fluoroazetidin-1-yl)cyclohexyl)-6-isopropyl-4H-pyrrolo[3,2-d]thiazole]: the results for the IC50 on human TLR7, on human TLR8 and at human TLR9 were 0.00443 µM, 0.0114 µM and 18.2 µM, respectively.

In the case of `CC(C)c1c(-c2ccc(C#N)c3ncccc23)[nH]c2sc(C3CCN(C4COC4)CC3)nc12` [Example 37, 5-(6-isopropyl-2-(1-(oxetan-3-yl)piperidin-4-yl)-4H-pyrrolo[3,2-d]thiazol-5-yl)quinoline-8-carbonitrile], the results for the IC50 at human TLR7, at human TLR8 and against human TLR9 were 0.0121 µM, 0.027 µM and 27.9 µM, respectively.

As to `Cc1cc(-c2[nH]c3sc(C(=O)N4CCC(N(C)C)CC4)nc3c2C(C)C)cn2ncnc12` [Example 395, (4-(dimethylamino)piperidin-1-yl)(6-isopropyl-5-(8-methyl-[1,2,4]triazolo[1,5-a]pyridin-6-yl)-4H-pyrrolo[3,2-d]thiazol-2-yl)methanone], the IC50 on human TLR7 worked out at 0.00789 µM; on human TLR8, 0.00675 µM; against human TLR9, 4.5 µM.

As to `Cc1c(-c2[nH]c3sc(C4CCC(N5CCC5)CC4)nc3c2C(C)C)cn(C)c(=O)c1C` (single isomer, unassigned) [Example 255, 5-(2-(4-(azetidin-1-yl)cyclohexyl)-6-isopropyl-4H-pyrrolo[3,2-d]thiazol-5-yl)-1,3,4-trimethylpyridin-2(1H)-one], the figures for the concentration for half-maximal inhibition (IC50) on human TLR7, on human TLR8 and against human TLR9 were 0.00686 µM, 0.00488 µM and 15.1 µM, respectively.

As for `Cc1c(-c2[nH]c3sc(N4C[C@@H](C)N(C5CCOCC5)C[C@@H]4C)nc3c2C(C)C)cn2ncnc2c1C` [Example 329, 2-((2S,5R)-2,5-dimethyl-4-(tetrahydro-2H-pyran-4-yl)piperazin-1-yl)-5-(7,8-dimethyl-[1,2,4]triazolo[1,5-a]pyridin-6-yl)-6-isopropyl-4H-pyrrolo[3,2-d]thiazole], the results for the IC50 on human TLR7, on human TLR8 and against human TLR9 were 0.414 µM, 0.0603 µM and 14.7 µM, respectively.

As for `Cc1c(-c2[nH]c3sc(N4CC5(CN(CC(C)(C)O)C5)C4)nc3c2C(C)C)cn2ncnc2c1C` [Example 303, 1-(6-(5-(7,8-dimethyl-[1,2,4]triazolo[1,5-a]pyridin-6-yl)-6-isopropyl-4H-pyrrolo[3,2-d]thiazol-2-yl)-2,6-diazaspiro[3.3]heptan-2-yl)-2-methylpropan-2-ol], the IC50 is 0.00799 µM on human TLR7, 0.00093 µM at human TLR8 and 26.4 µM against human TLR9.

On to `Cc1c(-c2[nH]c3sc(N4C[C@@H](C)N(C(C)C)C[C@@H]4C)nc3c2C(C)C)cn2ncnc2c1C` [Example 334, 5-(7,8-dimethyl-[1,2,4]triazolo[1,5-a]pyridin-6-yl)-6-isopropyl-2-((2S,5R)-4-isopropyl-2,5-dimethylpiperazin-1-yl)-4H-pyrrolo[3,2-d]thiazole], for which the IC50 at human TLR7 was found to be 0.0136 µM; at human TLR8 it was 0.00319 µM; at human TLR9, 4.83 µM.

In the case of `Cc1c(-c2[nH]c3sc(N4CCN(CC(C)(C)O)C[C@H]4C)nc3c2C(C)C)cn2ncnc2c1C` [Example 325, (R)-1-(4-(5-(7,8-dimethyl-[1,2,4]triazolo[1,5-a]pyridin-6-yl)-6-isopropyl-4H-pyrrolo[3,2-d]thiazol-2-yl)-3-methylpiperazin-1-yl)-2-methylpropan-2-ol], the IC50 at human TLR7 was 0.019 µM; at human TLR8, 0.00019 µM; at human TLR9 it was over 50 µM.

The values are drawn from patent US20230139171A1 (SITA Information Networking Computing UK Limited, priority 2019, published 2023).
